Where only a bound is given, the exact number is not on record here.

One assay concerns NOX. Put plainly: Nitroblue tetrazolium (NBT) superoxide test in cells. It counts as cell-based, human. The settings on record: DPI 10 μM, usually. Here is the method: Human microglia cell line (HMC3, human microglia clone 3) (Janabi et al., 1995, Neurosci. Lett. 195:105) were cultured in MEM (Eagle's minimum essential medium) containing 10% FBS with 50 U/ml penicillin G sodium 50 μg/ml streptomycin sulfate, and incubated at 37° C. for 24 hours. IFN-γ (human IFN-γ, Roche. 11 040 596 001) was added to the culture medium for a final concentration of 10 ng/ml 24 h, before detection of O2^− formation. […]
Intracellular and extracellular superoxide was measured by a colorimetric technique using a quantitative nitroblue tetrazolium (NBT) test. SOD-inhibitable conversion of NBT to formazan, a fine blue precipitate, in the presence of superoxide anion was measured using Fluostar Optima spectrometer (BMG labtech). […] The absorption was measured at 630 nm. For calculation, the absorbance at 630 nm was normalized for each individual well. […] NOX activities were expressed as % of the activity in control cells. […]
On to `c1ccc([I+]c2ccccc2)cc1` [DPI, Diphenyl-iodonium], for which the “Residual activity of DPI-treated cells (NOX activity as % of control cells)” value was under 10%.

For another assay, the system named is NOX. Put plainly: H2DCF-DA fluorescence in TGF-β stimulated HUVEC. It counts as cell-based, human. The following applies: usually. On the procedure:
HUVEC are cultured in endothelial basal medium supplemented with hydrocortisone (1 μg/mL, Calbiochem), bovine brain extract (12 μg/mL), gentamicin (50 μg/mL, Calbiochem), amphotericin B (50 ng/mL, Calbiochem EGF (10 ng/mL, and 10% FCS until the fourth passage. When the fifth passage was started, cells were cultured with a lower concentration of FCS (2%) in the absence of EGF, if not indicated otherwise. All experiments were done with cells of the fifth passage. The cells were incubated with OxLDL (oxidized low-density lipoprotein) or its buffer as control for 24 h, before detection of O2^− formation.
HUVEC were plated on coverslips and made quiescent overnight in 0.5% BSA before stimulation with TGF-β. Cells were loaded for 10 minutes with 5 μM CM-H2DCF-DA in phenol-red-free medium in the dark and then treated with TGF-β (R&D Systems) in the presence or absence of compounds according to the invention. Cells were then visualized by immunofluorescence microscopy after fixation and staining of the nuclei with DAPI or examined live using confocal microscopy. DCF fluorescence was visualized at an excitation wavelength of 488 nm and emission at 515 to 540 nm. […] For calculation, the absorbance at […] was normalized to absorbance at […] for each individual well. […] NOX activities were expressed as % of the activity in control cells. […]
With `c1ccc([I+]c2ccccc2)cc1` [DPI, Diphenyl-iodonium], the “Residual activity of DPI-treated cells (NOX activity as % of control cells)” value is under 10%.

The next assay has as its target T1, NOX (Homo sapiens, UniProt P04839).
T1 construct: HL60 differentiation to the neutrophil phenotype was triggered by adding Me2SO; endogenous in cells; host or cells: HL-60 cells differentiated with Me2SO (1.25% v/v, 6 days) to the neutrophil phenotype
T1 sequence (P04839 2-570 limits assumed): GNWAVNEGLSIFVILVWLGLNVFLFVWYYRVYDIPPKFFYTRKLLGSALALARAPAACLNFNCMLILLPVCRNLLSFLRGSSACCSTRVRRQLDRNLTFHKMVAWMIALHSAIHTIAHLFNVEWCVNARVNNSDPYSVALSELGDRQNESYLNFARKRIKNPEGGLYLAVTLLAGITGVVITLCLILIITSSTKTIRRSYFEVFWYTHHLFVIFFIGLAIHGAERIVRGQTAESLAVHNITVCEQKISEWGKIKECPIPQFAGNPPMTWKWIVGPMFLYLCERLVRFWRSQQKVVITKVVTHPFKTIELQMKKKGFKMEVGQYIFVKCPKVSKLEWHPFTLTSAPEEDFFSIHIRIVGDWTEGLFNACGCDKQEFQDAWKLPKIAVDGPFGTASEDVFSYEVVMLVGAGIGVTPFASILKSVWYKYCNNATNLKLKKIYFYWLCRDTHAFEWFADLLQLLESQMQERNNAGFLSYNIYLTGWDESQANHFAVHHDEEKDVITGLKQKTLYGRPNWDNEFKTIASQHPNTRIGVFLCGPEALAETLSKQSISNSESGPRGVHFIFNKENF
T1 sequence (P13498 1-195 partner): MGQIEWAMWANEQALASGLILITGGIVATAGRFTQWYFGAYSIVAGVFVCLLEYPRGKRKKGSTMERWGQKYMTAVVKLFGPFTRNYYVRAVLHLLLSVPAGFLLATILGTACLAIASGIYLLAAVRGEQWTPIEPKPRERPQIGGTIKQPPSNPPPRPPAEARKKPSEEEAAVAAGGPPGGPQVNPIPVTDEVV
Put plainly: Amplex Red measurement of extracellular hydrogen peroxide (NOX activity) in DMSO-differentiated HL60 cells. It counts as cell-based.
Conditions: not given
Here is the method:
Human acute myeloid leukemia cell line HL-60 was cultured in RPMI 1640 (Invitrogen) supplemented with 10% heat-inactivated calf serum, 2 mM glutamine, 100 U/mL penicillin (Sigma), and 100 μg streptomycin (Sigma) at 37° C. under a humidified atmosphere of 5% CO2. HL60 differentiation to the neutrophil phenotype was triggered by adding Me2SO (final concentration 1.25% v/v for 6 days) to the culture medium.
Extracellular hydrogen peroxide was measured using Amplex UltraRed (Molecular Probes). Cells were trypsinized (1× Trypsin-EDTA), collected by centrifugation, and resuspended in HBSS supplemented with 1% glucose. Cells were seeded into black 96-well plates at a density of 50′000 cells in 200 μl testing buffer (HBSS 1% glucose containing 0.005 U/mL horseradish peroxidase (Roche) and 50 μM Amplex Red in the presence or absence of compounds according to the invention. As a control, DPI was included at a final concentration of 10 μM The plates were placed in the fluorescent Optima Fluorescent plate reader and kept at 37° C. during 20 min. Fluorescence was measured for […] with excitation and emission wavelengths of 544 nm and 590 nm respectively. NOX activities were expressed as % of the activity in control cells. Residual activity of DPI-treated cells was usually <10%. […]
The Table 3 below summarizes the IC50 of NOX activity as measured by Amplex Red using DMSO-differentiated HL60 cells as described above: […]
For the compound `O=c1c2c([nH]n1Cc1ccc(Cl)cc1)CCN(Cc1ccccc1)C2` [Compound 1, 5-benzyl-2-(4-chlorobenzyl)-1,2,4,5,6,7-hexahydro-3H-pyrazolo[4,3-c]pyridin-3-one], the IC50 is under 5 µM. Same read-out and setting: the figure for `O=c1c2c([nH]n1-c1ccc(F)cc1Cl)CCN(Cc1ccccc1)C2` [Compound 2, 5-benzyl-2-(2-chloro-4-fluorophenyl)-1,2,4,5,6,7-hexahydro-3H-pyrazolo[4,3-c]pyridin-3-one] is under 5 µM. Still for that read-out and setting: the figure for `O=c1c2c([nH]n1-c1cccc(OCc3ccccc3)c1)CCN(Cc1ccccc1)C2` [Compound 3, 5-benzyl-2-[3-(benzyloxy)phenyl]-1,2,4,5,6,7-hexahydro-3H-pyrazolo[4,3-c]pyridin-3-one] is under 5 µM; for `O=c1c2c([nH]n1-c1ccc(F)cc1Cl)CCNC2` [Compound 4, 2-(2-chloro-4-fluorophenyl)-1,2,4,5,6,7-hexahydro-3H-pyrazolo[4,3-c]pyridin-3-one] it is under 5 µM. Turning to `Cn1[nH]c2c(c1=O)CN(Cc1ccccc1)CC2` [Compound 8, 5-benzyl-2-methyl-1,2,4,5,6,7-hexahydro-3H-pyrazolo[4,3-c]pyridin-3-one], the 50% inhibitory concentration (IC50) was under 5 µM. On the same count and under the same terms, in the case of `O=c1c2c([nH]n1Cc1ccccc1)CCN(Cc1ccc(Cl)cc1)C2` [Compound 9, 2-benzyl-5-(4-chlorobenzyl)-1,2,4,5,6,7-hexahydro-3H-pyrazolo[4,3-c]pyridin-3-one] it was under 5 µM; in that of `O=c1c2c([nH]n1Cc1ccccc1)CCN(Cc1ccccc1)C2` [Compound 12, 2,5-dibenzyl-1,2,4,5,6,7-hexahydro-3H-pyrazolo[4,3-c]pyridin-3-one], under 5 µM; in that of `COc1cccc(-n2[nH]c3c(c2=O)CN(Cc2ccccc2)CC3)c1` [Compound 24, 5-benzyl-2-(3-methoxyphenyl)-1,2,4,5,6,7-hexahydro-3H-pyrazolo[4,3-c]pyridin-3-one], under 5 µM.

In turn, `CN1N=C2CCN(Cc3ccc(Cl)cc3)CC2(Cc2cccnc2)C1=O` (stereo not shown) [Compound 87, 5-(4-chlorobenzyl)-2-methyl-3a-(pyridin-3-ylmethyl)-2,3a,4,5,6,7-hexahydro-3H-pyrazolo[4,3-c]pyridin-3-one] displayed an IC50 of under 5 µM. `CN1CCC(n2[nH]c3c(c2=O)CN(Cc2ccc(Cl)nc2)CC3)CC1` [Compound 96, 5-[(6-chloropyridin-3-yl)methyl]-2-(1-methylpiperidin-4-yl)-1,2,4,5,6,7-hexahydro-3H-pyrazolo[4,3-c]pyridin-3-one] registered an IC50 of under 5 µM. On the same count and under the same terms, the figure for `O=c1c2c([nH]n1Cc1ccccc1)CCN(Cc1ccc(Cl)nc1)C2` [Compound 97, 2-benzyl-5-[(6-chloropyridin-3-yl)methyl]-1,2,4,5,6,7-hexahydro-3H-pyrazolo[4,3-c]pyridin-3-one] is under 5 µM; for `CS(=O)(=O)N1CCc2[nH]n(Cc3ccccc3)c(=O)c2C1` [Compound 102, 2-benzyl-5-(methylsulfonyl)-1,2,4,5,6,7-hexahydro-3H-pyrazolo[4,3-c]pyridin-3-one] it is under 5 µM. As to `Cc1ccc(S(=O)(=O)N2CCc3[nH]n(Cc4cn5ccccc5n4)c(=O)c3C2)cc1` [Compound 103, 2-(imidazo[1,2-a]pyridin-2-ylmethyl)-5-[(4-methylphenyl)sulfonyl]-1,2,4,5,6,7-hexahydro-3H-pyrazolo[4,3-c]pyridin-3-one], the half-inhibitory concentration (IC50) is under 5 µM.

In the next assay the test system is NOX. Put plainly: Chemiluminescence (luminol) ROS measurement in cells. It counts as cell-based, human. The settings on record: usually. Here is the method:
ROS was measured using the chemiluminescent probe luminol. Cells were cultured and plated as for Amplex Red except that the Amplex Red agent was replaced by 10 μg/mL luminol (Sigma 09235). Light emission was recorded continuously at 37° C. for 60 minutes using the luminescence function of the FluoStar Optima fluorescent plate reader. The mean of the four blank values was subtracted from each corrected value for each time point. NOX activities were expressed as % of the activity in control cells. Residual activity of DPI-treated cells was usually <10%.
Regarding `c1ccc([I+]c2ccccc2)cc1` [DPI, Diphenyl-iodonium], the “Residual activity of DPI-treated cells (NOX activity as % of control cells)” value is listed as under 10%.

The values are drawn from patent US8865758B2, “Pyrazolo piperidine derivatives as NADPH oxidase inhibitors” (Genkyotex SA, priority 2010, dated 2014).
